Laboratory results taken from US20050004186A1, “MEK inhibiting compounds” (Pfizer Inc, priority 2002, published 2005).

Columns and labels:
MEK [1] = experiment: Cellular assay for measuring MEK inhibition, C26CPA1 (inhibition of ERK phosphorylation in C26 cells); assay type: cell-based, murine; conditions: murine colon 26 (C26) carcinoma cells, one hour at 37 C
Outline: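 Exponentially growing murine C26 carcinoma cells treated with test compound for one hour at 37° C. CPA1 read-out: Western blot of lysates with dually phosphorylated ERK1/2 antibody, re-probed for total ERK1/2. ELSA read-out: pERK enzyme immunometric ELISA on SDS lysates diluted 1:15.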

MEK [2] = experiment: Cellular assay for measuring MEK inhibition, C26ELSA (pERK ELISA format in C26 cells); assay type: cell-based, murine; conditions: C26 cells
Experimental: Cellular Assay for Measuring MEK Inhibition
MEK inhibitors were evaluated by determining their ability to inhibit phosphorylation of MAP kinase (ERK) in murine colon 26 (C26) carcinoma cells. Since ERK1 and ERK2 represent the only known substrates for MEK1 and MEK2, the measurement of inhibition of ERK phosphorylation in cells provides direct read out of cellular MEK inhibition by the compounds of the invention. Detection of phosphorylation of ERK was carried out either by Western blot or ELISA format. Briefly, the assays involve treatment of exponentially growing C26 cells with varying concentrations of the test compound (or vehicle control) for one hour at 37≡ C. For Western blot assay, cells were rinsed free of compound/vehicle and lysed in a solution containing 70 mM NaCl, 50 mM glycerol phosphate, 10 mM HEPES, […], 1% Triton X-100, 1 mM Na3VO4, 100 μM PMSF, 10 μM leupeptin and 10 μM pepstatin. Supernatants were then subjected to gel electrophoresis and hybridized to a primary antibody recognizing dually phosphorylated ERK1 and ERK2. To evaluate total MAPK levels, blots were subsequently ‘stripped’ and re-probed with a 1:1 mixture of polyclonal antibodies recognizing unphosphorylated ERK1 and ERK2. For pERK ELISA assay, pERK TiterZyme Enzyme immunometric Assay kits were acquired from Assay Designs, Inc (Ann Arbor, Mich.). Briefly, cells were harvested in lysis solution containing 50 mM β-glycerophosphate, 10 mM HEPES, pH7.4, 70 mM NaCl, 2 mM EDTA and 1% SDS and protein lysates were diluted 1:15 with supplied Assay buffer prior to the execution of the assay. The subsequent steps were carried out essentially as recommended by the manufacturer.

SMILES: Nc1nnc(-c2ccc(F)c(F)c2Nc2ccc(I)cc2F)o1 [Example 1, 5-[3,4-Difluoro-2-(2-fluoro-4-iodo-phenylamino)-phenyl]-[1,3,4]oxadiazol-2-ylamine]
- IC50 (MEK [1]): 40 nM
- melting point: 248 to 249 °C

SMILES: CCNc1nnc(-c2ccc(F)c(F)c2Nc2ccc(I)cc2F)o1 [Example 4, {5-[3,4-Difluoro-2-(2-fluoro-4-iodo-phenylamino)-phenyl]-[1,3,4]oxadiazol-2-yl}-ethyl-amine]
- IC50 (MEK [1]): 89 nM
- melting point: 188 to 189 °C

SMILES: C=CCNc1nnc(-c2ccc(F)c(F)c2Nc2ccc(I)cc2F)o1 [Example 5, Allyl-{5-[3,4-difluoro-2-(2-fluoro-4-iodo-phenylamino)-phenyl]-[1,3,4]oxadiazol-2-yl}-amine]
- IC50 (MEK [1]): 9 nM
- melting point: 175 to 178 °C

SMILES: COc1ccc(Nc2nnc(-c3ccc(F)c(F)c3Nc3ccc(I)cc3F)o2)c(OC)c1 [Example 6, {5-[3,4-Difluoro-2-(2-fluoro-4-iodo-phenylamino)-phenyl]-[1,3,4]oxadiazol-2-yl}-(2.4-dimethoxy-phenyl)-amine]
- IC50 (MEK [1]): > 1000 nM
- melting point: 185 to 186 °C

SMILES: CN(C)c1ccc(Nc2nnc(-c3ccc(F)c(F)c3Nc3ccc(I)cc3F)o2)cc1 [Example 7, N-{5-[3,4-Difluoro-2-(2-fluoro-4-iodo-phenylamino)-phenyl]-[1,3,4]oxadiazol-2-yl}-N′,N′-dimethyl-benzene-1,4-diamine]
- IC50 (MEK [1]): > 1000 nM
- melting point: 230 to 233 °C

SMILES: OCC(O)CNc1nnc(-c2ccc(F)c(F)c2Nc2ccc(I)cc2F)o1 (stereo not shown) [Example 8, 3-{5-[3,4-Difluoro-2-(2-fluoro-4-iodo-phenylamino)-phenyl]-[1,3,4]oxadiazol-2-ylamino}-propane-1,2-diol]
- IC50 (MEK [1]): 67 nM
- melting point: 157 to 159 °C

SMILES: CCN(CC)CCCNc1nnc(-c2ccc(F)c(F)c2Nc2ccc(I)cc2F)o1 [Example 10, N-{5-[3,4-Difluoro-2-(2-fluoro-4-iodo-phenylamino)-phenyl]-[1,3,4]oxadiazol-2-yl}-N′,N′-diethyl-propane-1,3-diamine]
- IC50 (MEK [1]): 153 nM
- melting point: 116 to 118 °C

SMILES: CN(C)CC(C)(C)CNc1nnc(-c2ccc(F)c(F)c2Nc2ccc(I)cc2F)o1 [Example 19, N-{5-[3,4-Difluoro-2-(2-fluoro-4-iodo-phenylamino)-phenyl]-[1,3,4]oxadiazol-2-yl}-2,2,N′,N′-tetramethyl-propane-1.3-diamine]
- IC50 (MEK [1]): 309 nM
- melting point: 143 to 146 °C

SMILES: COCCN1CCN(c2nnc(-c3ccc(F)c(F)c3Nc3ccc(I)cc3F)o2)CC1 [Example 22, (2,3-Difluoro-6-{5-[4-(2-methoxy-ethyl)-piperazin-1-yl]-[1,3,4]oxadiazol-2-yl}-phenyl)-(2-fluoro-4-iodo-phenyl)-amine]
- IC50 (MEK [1]): 130 nM
- melting point: 63 to 65 °C

SMILES: CC(C)(CO)CCCNc1nnc(-c2ccc(F)c(F)c2Nc2ccc(I)cc2F)o1 [Example 23, 5-{5-[3,4-Difluoro-2-(2-fluoro-4-iodo-phenylamino)-phenyl]-[1,3,4]oxadiazol-2-ylamino}-2,2-dimethyl-pentan-1-ol]
- IC50 (MEK [1]): 292 nM
- melting point: 67 to 70 °C

SMILES: OC1CCN(c2nnc(-c3ccc(F)c(F)c3Nc3ccc(I)cc3F)o2)C1 (stereo not shown) [Example 24, 1-{5-[3.4-Difluoro-2-(2-fluoro-4-iodo-phenylamino)-phenyl]-[1,3,4]oxadiazol-2-yl}-pyrrolidin-3-ol]
- IC50 (MEK [1]): 170 nM
- melting point: 182 to 183 °C

SMILES: OCC1CCN(c2nnc(-c3ccc(F)c(F)c3Nc3ccc(I)cc3F)o2)CC1 [Example 25, (1-{5-[3,4-Difluoro-2-(2-fluoro-4-iodo-phenylamino)-phenyl]-[1,3,4]oxadiazol-2-yl}-piperidin-4-yl)-methanol]
- IC50 (MEK [1]): > 1000 nM
- melting point: 90 to 92 °C

SMILES: OCCC1CCN(c2nnc(-c3ccc(F)c(F)c3Nc3ccc(I)cc3F)o2)CC1 [Example 26, 2-(1-{5-[3,4-Difluoro-2-(2-fluoro-4-iodo-phenylamino)-phenyl]-[1,3,4]oxadiazol-2-yl}-piperidin-4-yl)-ethanol]
- IC50 (MEK [1]): 140 nM
- melting point: 121 to 122 °C

SMILES: CCN(CCCCO)c1nnc(-c2ccc(F)c(F)c2Nc2ccc(I)cc2F)o1 [Example 27, 4-({5-[3,4-Difluoro-2-(2-fluoro-4-iodo-phenylamino)-phenyl]-[1,3,4]oxadiazol-2-yl}-ethyl-amino)-butan-1-ol]
- IC50 (MEK [1]): 180 nM
- melting point: 121 to 122 °C

SMILES: OC1CCN(c2nnc(-c3ccc(F)c(F)c3Nc3ccc(I)cc3F)o2)CC1 [Example 28, 1-{5-[3,4-Difluoro-2-(2-fluoro-4-iodo-phenylamino)-phenyl]-[1,3,4]oxadiazol-2-yl}-piperidin-4-ol]
- IC50 (MEK [1]): 74 nM
- melting point: 216 to 217 °C

SMILES: OCCNc1nnc(-c2ccc(F)c(F)c2Nc2ccc(I)cc2F)o1 [Example 29, 2-{5-[3,4-Difluoro-2-(2-fluoro-4-iodo-phenylamino)-phenyl]-[1,3,4]oxadiazol-2-ylamino}-ethanol]
- IC50 (MEK [1]): 15 nM
- melting point: 100 to 103 °C

SMILES: OCCCNc1nnc(-c2ccc(F)c(F)c2Nc2ccc(I)cc2F)o1 [Example 30, 3-{5-[3,4-Difluoro-2-(2-fluoro-4-iodo-phenylamino)-phenyl]-[1,3,4]oxadiazol-2-ylamino}-propan-1-ol]
- melting point: 154 to 155 °C

SMILES: OCCCCNc1nnc(-c2ccc(F)c(F)c2Nc2ccc(I)cc2F)o1 [Example 31, 4-{5-[3,4-Difluoro-2-(2-fluoro-4-iodo-phenylamino)-phenyl]-[1,3,4]oxadiazol-2-ylamino}-butan-1-ol]
- IC50 (MEK [1]): 12 nM
- melting point: 82 to 83 °C

SMILES: OCCCCCNc1nnc(-c2ccc(F)c(F)c2Nc2ccc(I)cc2F)o1 [Example 32, 5-{5-[3,4-Difluoro-2-(2-fluoro-4-iodo-phenylamino)-phenyl]-[1,3,4]oxadiazol-2-ylamino}-pentan-1-ol]
- IC50 (MEK [1]): 120 nM
- melting point: 119 to 121 °C

SMILES: CCc1ccc(Nc2c(-c3nnc(NCCNC)o3)ccc(F)c2F)c(F)c1 [Example 67, N-{5-[2-(4-Ethyl-2-fluoro-phenylamino)-3,4-difluoro-phenyl]-[1,3,4]oxadiazol-2-yl}-N′-methyl-ethane-1,2-diamine]
- IC50 (MEK [1]): 16 nM
- melting point: 154 to 157 °C

SMILES: CCc1ccc(Nc2c(-c3nnc(NCCN4CCOCC4)o3)ccc(F)c2F)c(F)c1 [Example 68, {5-[2-(4-Ethyl-2-fluoro-phenylamino)-3,4-difluoro-phenyl]-[1,3,4]oxadiazol-2-yl}-(2-morpholin-4-yl-ethyl)-amine]
- IC50 (MEK [1]): 50 nM
- melting point: 233 to 238 °C

SMILES: CCc1ccc(Nc2c(-c3nnc(NCCO)o3)ccc(F)c2F)c(F)c1 [Example 69, 2-{5-[2-(4-Ethyl-2-fluoro-phenylamino)-3,4-difluoro-phenyl]-[1,3,4]oxadiazol-2-ylamino}-ethanol]
- IC50 (MEK [1]): 100 nM
- melting point: 100 to 103 °C

SMILES: C=CCNc1nnc(-c2ccc(F)c(F)c2Nc2ccc(CC)cc2F)o1 [Example 70, Allyl-{5-[2-(4-ethyl-2-fluoro-phenylamino)-3,4-difluoro-phenyl]-[1,3,4]oxadiazol-2-yl}-amine]
- melting point: 120 to 123 °C

SMILES: CCNc1nnc(-c2ccc(F)c(F)c2Nc2ccc(I)cc2F)s1 [Example 71, {5-[3,4-Difluoro-2-(2-fluoro-4-iodo-phenylamino)-phenyl]-[1,3,4]thiadiazol-2-yl}-ethyl-amine]
- IC50 (MEK [1]): 180 nM
- melting point: 238 to 239 °C

SMILES: CCc1ccc(Nc2c(-c3nnc(CC)o3)ccc(F)c2F)c(F)c1 [Example 142, (4-Ethyl-2-fluoro-phenyl)-[6-(5-ethyl-[1,3,4]oxadiazol-2-yl)-2,3-difluoro-phenyl]-amine]
- melting point: 82 to 83 °C

SMILES: C#Cc1ccc(Nc2c(-c3nnc(CC)o3)ccc(F)c2F)c(F)c1 [Example 144, [6-(5-Ethyl-[1,3,4]oxadiazol-2-yl)-2,3-difluoro-phenyl]-(4-ethynyl-2-fluoro-phenyl)-amine]
- C26ELSA % Inhibition @ 5 μM (MEK [2]): 43%

SMILES: CCc1ccc(Nc2c(-c3nnc(CCCBr)o3)ccc(F)c2F)c(F)c1 [Example 145, {6-[5-(3-Bromo-propyl)-[1,3,4]oxadiazol-2-yl]-2,3-difluoro-phenyl}-(4-ethyl-2-fluoro-phenyl)-amine]
- C26ELSA % Inhibition @ 5 μM (MEK [2]): 13%

SMILES: CCc1ccc(Nc2c(-c3nnc(CCCN4CCOCC4)o3)ccc(F)c2F)c(F)c1 [Example 146, {2,3-Difluoro-6-[5-(3-morpholin-4-yl-propyl)-[1,3,4]oxadiazol-2-yl]-phenyl}-(4-ethyl-2-fluoro-phenyl)-amine]
- C26ELSA % Inhibition @ 5 μM (MEK [2]): 6%

SMILES: CC(=O)c1ccc(Nc2c(-c3nnc(NCCN4CCOCC4)o3)ccc(F)c2F)c(F)c1 [Example 149, 1-(4-{2,3-Difluoro-6-[5-(2-morpholin-4-yl-ethylamino)-[1,3,4]oxadiazol-2-yl]-phenylamino}-3-fluoro-phenyl)-ethanone]
- C26ELSA % Inhib @ 0.5 μM (MEK [2]; 0.5 μM): 2%
- C26ELSA % Inhibition @ 5 μM (MEK [2]): 14%
